From PubChem BioAssay AID256 (DTP/NCI, 2004)
Toxic doses and inconclusive results are not listed. The calls were made as follows: active = survival T/C of 150% or more; inactive = T/C below 125% in these data.

System: CD2F1 mice, L1210 leukemia ip, survival T/C
Test: NCI In Vivo Anticancer Drug Screen. Data for tumor model L1210 Leukemia (intraperitoneal) in CD2F1 (CDF1) mice
Conditions: higher = longer survival
Outline: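 Tumor-bearing mice (transplanted tumor) were split into treated and vehicle control groups, and the measured endpoint of each treated group was divided by that of its vehicle controls.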

[1] = endpoint: mean survival time, dose: 100.0 mg/kg/injection, schedule: Q01DX009 (ip), vehicle: saline with Tween-80
[2] = endpoint: mean survival time, dose: 200.0 mg/kg/injection, schedule: Q01DX009 (ip), vehicle: saline with Tween-80
[3] = endpoint: mean survival time, dose: 400.0 mg/kg/injection, schedule: Q01DX009 (ip), vehicle: saline with Tween-80

Measured: T/C

Cc1ccc(S(=O)(=O)N/N=C/Cc2c(C(C)C)cc(C(C)C)cc2C(C)C)cc1
inactive: endpoint: median survival time, dose: 50.0 mg/kg/injection, schedule: Q04DX002 (ip), vehicle: saline with Tween-80 100 % of control | endpoint: median survival time, dose: 100.0 mg/kg/injection, schedule: Q04DX002 (ip), vehicle: saline with Tween-80 100 % of control | endpoint: median survival time, dose: 200.0 mg/kg/injection, schedule: Q04DX002 (ip), vehicle: saline with Tween-80 110 % of control | endpoint: median survival time, dose: 400.0 mg/kg/injection, schedule: Q04DX002 (ip), vehicle: saline with Tween-80 100 % of control

O=C1c2ccccc2C(=O)N1CNc1cccc(NCN2C(=O)c3ccccc3C2=O)n1
inactive: endpoint: mean survival time, dose: 100.0 mg/kg/injection, schedule: Q04DX003 (ip), vehicle: saline with Tween-80 104 % of control | endpoint: mean survival time, dose: 200.0 mg/kg/injection, schedule: Q04DX003 (ip), vehicle: saline with Tween-80 106 % of control | endpoint: mean survival time, dose: 400.0 mg/kg/injection, schedule: Q04DX003 (ip), vehicle: saline with Tween-80 90 % of control

Nc1ccc(S(=O)(=O)c2ccc(N)c(S(N)(=O)=O)c2)cc1
inactive: [1] 92 % of control | [2] 91 % of control | [3] 100 % of control

CC12NC(=O)NC1(C)NC(=O)N2 (centres undefined)
inactive: [1] 95 % of control | [2] 101 % of control | [3] 86 % of control

Cc1ccc2c(c1)C1(SC(C)C(=O)N1c1ccc(Cl)cc1)C(=O)N2 (centres undefined)
inactive: endpoint: median survival time, dose: 25.0 mg/kg/injection, schedule: Q01DX005 (ip), vehicle: saline with Tween-80 107 % of control | endpoint: median survival time, dose: 50.0 mg/kg/injection, schedule: Q01DX005 (ip), vehicle: saline with Tween-80 113 % of control | endpoint: median survival time, dose: 100.0 mg/kg/injection, schedule: Q01DX005 (ip), vehicle: saline with Tween-80 116 % of control | endpoint: median survival time, dose: 200.0 mg/kg/injection, schedule: Q01DX005 (ip), vehicle: saline with Tween-80 116 % of control | endpoint: median survival time, dose: 400.0 mg/kg/injection, schedule: Q01DX005 (ip), vehicle: saline with Tween-80 123 % of control

Cc1cc(N)c(S(N)(=O)=O)c([N+](=O)[O-])c1
inactive: endpoint: mean survival time, dose: 100.0 mg/kg/injection, schedule: Q01DX001 (ip), vehicle: saline with Tween-80 100 % of control | endpoint: mean survival time, dose: 200.0 mg/kg/injection, schedule: Q01DX001 (ip), vehicle: saline with Tween-80 97 % of control | endpoint: mean survival time, dose: 400.0 mg/kg/injection, schedule: Q01DX001 (ip), vehicle: saline with Tween-80 94 % of control

NC1CONC1=O (centres undefined)
inactive: endpoint: mean survival time, dose: 100.0 mg/kg/injection, schedule: Q04DX003 (ip), vehicle: saline 94 % of control | endpoint: mean survival time, dose: 200.0 mg/kg/injection, schedule: Q04DX003 (ip), vehicle: saline 97 % of control | endpoint: mean survival time, dose: 400.0 mg/kg/injection, schedule: Q04DX003 (ip), vehicle: saline 96 % of control

CC1(C)OC2COC(OCc3ccccc3)C(OCc3ccccc3)C2O1 (centres undefined)
inactive: [1] 104 % of control | [2] 101 % of control | [3] 96 % of control

CCN1C(=O)CSC1=S
inactive: endpoint: mean survival time, dose: 50.0 mg/kg/injection, schedule: Q01DX009 (ip), vehicle: other 88 % of control | endpoint: mean survival time, dose: 100.0 mg/kg/injection, schedule: Q01DX001 (ip), vehicle: other 94 % of control | endpoint: mean survival time, dose: 100.0 mg/kg/injection, schedule: Q01DX009 (ip), vehicle: other 108 % of control | endpoint: mean survival time, dose: 100.0 mg/kg/injection, schedule: Q04DX003 (ip), vehicle: other 95 % of control | endpoint: mean survival time, dose: 200.0 mg/kg/injection, schedule: Q01DX001 (ip), vehicle: other 93 % of control | endpoint: mean survival time, dose: 200.0 mg/kg/injection, schedule: Q01DX009 (ip), vehicle: other 95 % of control | endpoint: mean survival time, dose: 200.0 mg/kg/injection, schedule: Q04DX003 (ip), vehicle: other 93 % of control | endpoint: mean survival time, dose: 400.0 mg/kg/injection, schedule: Q01DX001 (ip), vehicle: other 91 % of control

CC1(c2cc(F)cc3ccccc23)OC(=O)c2ccccc21 (centres undefined)
inactive: endpoint: median survival time, dose: 25.0 mg/kg/injection, schedule: Q04DX003 (ip), vehicle: saline with Tween-80 100 % of control | endpoint: median survival time, dose: 50.0 mg/kg/injection, schedule: Q04DX003 (ip), vehicle: saline with Tween-80 100 % of control | endpoint: median survival time, dose: 100.0 mg/kg/injection, schedule: Q04DX003 (ip), vehicle: saline with Tween-80 100 % of control | endpoint: median survival time, dose: 200.0 mg/kg/injection, schedule: Q04DX003 (ip), vehicle: saline with Tween-80 100 % of control
